Values of other authors, collected in patent publication US20240058414A1, “METHODS OF TREATING MELANOCORTIN-4 RECEPTOR PATHWAY-ASSOCIATED DISORDERS” (RHYTHM PHARMACEUTICALS, INC., priority 2020, published 2024).

Key:
[1] = clinical trials; Chen et al. J. Clin. Endocrinol. Metab. 2015
[2] = patients with POMC and LEPR deficiency obesity, earlier pivotal studies

SMILES: CC(=O)N[C@@H](CCCNC(=N)N)C(=O)N[C@H]1CSSC[C@@H](C(N)=O)NC(=O)[C@H](Cc2c[nH]c3ccccc23)NC(=O)[C@H](CCCNC(=N)N)NC(=O)[C@@H](Cc2ccccc2)NC(=O)[C@H](Cc2cnc[nH]2)NC(=O)[C@@H](C)NC1=O [setmelanotide, Ac-Arg-c(Cys-D-Ala-His-D-Phe-Arg-Trp-Cys)-NH2]
- adverse effect on blood pressure [1]: has not been shown to adversely affect blood pressure
- reduction in hunger [2]: statistically significant and clinically meaningful reduction in hunger
- weight loss [2]: rapid and sustained significant and clinically meaningful weight loss
